Common to all, as to assay type: cell-based
The test system of one data set is 3T3 cells. In words: 3T3 NRU Phototoxicity Assay (COLIPA Validation Ring Study 1997), neutral red absorption. As to conditions: for NR50 irradiated / NR50 non-irradiated: 3T3 cells, concentration at which neutral red absorption has fallen to 50% of the check value; for NR50 irradiated: UV-irradiated cultures; for NR50 non-irradiated: non-irradiated cultures; for Phototoxicity in comparison to the non-oxidized comparative compound: photocytotoxicity tests, versus 4,5-bis(4-methoxyphenyl)-imidazo[1,2-a]thiolane; for Quotient non-irradiated/irradiated PIF: ratio of NR50 non-irradiated to irradiated, the lower the quotient, the lower the phototoxicity. The procedure: The photocytotoxicity of 4,5-bis(4-methoxyphenyl)-imidazo[1,2-a]thiolane-1-oxide and 4,5-bis(4-methoxyphenyl)-imidazo[1,2-a]thiolane-1-dioxide in comparison to 4,5-bis(4-methoxyphenyl)-imidazo[1,2-a]thiolane according to standard protocol “3T3 NRU Phototoxicity Assay” of the COLIPA Validation Ring Study of 1997 is shown in FIG. 1.
In the test method used, the change to the neutral red absorption of 3T3 cells is measured by UV irradiation. Only vital cells absorb the dye, a reduced absorption thus indicates a toxicity of the test substance added. The so-called NR50 value is typically determined for evaluation, i.e. those concentrations of the test substance for which the neutral red absorption has fallen to 50% of the check value. In order to determine the phototoxicity, this value is determined for non-irradiated and irradiated cultures and put in a ratio. The lower the quotient, the lower the phototoxicity (see Table 1).

Data set [1] concerns prostaglandin E2 (PGE2) production in human fibroblasts stimulated with LPS. Put plainly: Inhibition of LPS-induced PGE2 production in human fibroblasts. The conditions noted are these: for Inhibition of PGE2 production: human fibroblasts, LPS-stimulated, supernatant PGE2 24 hours later, FIG. 2. The procedure: The influence of 4,5-bis(4-methoxyphenyl)-imidazo[1,2-a]thiolane-1-oxide and 4,5-bis(4-Methoxyphenyl)-imidazo[1,2-a]thiolane-1-dioxide in comparison to 4,5-bis(4-methoxyphenyl)-imidazo[1,2-a]thiolane on eicosanoid production is illustrated in FIG. 2. For the samples in FIG. 2, human fibroblasts were stimulated with LPS and 24 hours later the supernatant PGE2 content was determined. Either Diclofenac with standard effects or dilutions of DKH derivatives were added to the LPS-stimulated cultures. Non-stimulated cultures and cultures only stimulated with LPS were measured as a control test.
Human fibroblasts in culture were induced to release prostaglandin E2 (PGE2) by means of lipopolysaccharide (LPS). Inhibition of this PGE2 production by imidazoles was then determined in the test.

In data set [2] the test system is LTB4 release by human neutrophile granulocytes stimulated with fMLP. Put plainly: Release of LTB4 by fMLP-stimulated human neutrophile granulocytes. The conditions noted are these: for Inhibition of LTB4 release: human neutrophile granulocytes, fMLP-stimulated, supernatant LTB4 2 hours later, FIG. 3. The procedure: A second test method was used to determine the influence of imidazoles on the release of LTB4 by stimulated granulocytes. Human neutrophile granulocytes from the peripheral blood were isolated, cultured and stimulated for LTB4 production with formylated methionyl-leucyl-phenylalanine (fMLP). Specifically, human neutrophile granulocytes were stimulated with fMLP and 2 hours later the supernatant LTB4 content was determined. Either BayX1005 with standard effects or dilutions of DKH derivatives were added to the fMLP-stimulated cultures. Non-stimulated cultures and cultures only stimulated with fMLP were measured as a control test.

Regarding `COc1ccc(-c2nc3n(c2-c2ccc(OC)cc2)CC[S+]3[O-])cc1` (stereo not shown) [4,5-bis(4-methoxyphenyl)-imidazo[1,2-a]thiolane-1-oxide], in the data set on 3T3 cells, the NR50 irradiated was over 42.3 mg/L, the NR50 non-irradiated is over 100 mg/L, the “Phototoxicity in comparison to the non-oxidized comparative compound” value is “considerably reduced phototoxicity” and the “Quotient non-irradiated/irradiated PIF” value is given as over 2.4. Moreover, in data set [1], the “Production of prostaglandin E2 in fibroblasts” value is “considerably reduced” and the “Inhibition of PGE2 production” value was “sufficient inhibition in the concentration range below one microgram per millimeter”. Further, in data set [2], the “Production of leukotriene B4 in granulocytes” value is recorded as “considerably reduced” and the “Inhibition of LTB4 release” value is “improved inhibition of LTB4 release”.

`COc1ccc(-c2nc3n(c2-c2ccc(OC)cc2)CCS3(=O)=O)cc1` [4,5-bis(4-methoxyphenyl)-imidazo[1,2-a]thiolane-1-dioxide]: in the data set with 3T3 cells, the NR50 irradiated was 7.77 mg/L, the NR50 non-irradiated was over 50 mg/L, the “Phototoxicity in comparison to the non-oxidized comparative compound” value is listed as “considerably reduced phototoxicity” and the “Quotient non-irradiated/irradiated PIF” value is over 6.4. Moreover, in data set [1], the “Production of prostaglandin E2 in fibroblasts” value is “considerably reduced” and the “Inhibition of PGE2 production” value is “sufficient inhibition in the concentration range below one microgram per millimeter”. Further, in data set [2], the “Production of leukotriene B4 in granulocytes” value is on record as “considerably reduced” and the “Inhibition of LTB4 release” value was “improved inhibition of LTB4 release”.

With `COc1ccc(-c2nc3n(c2-c2ccc(OC)cc2)CCS3)cc1` [4,5-bis(4-methoxyphenyl)-imidazo[1,2-a]thiolane, reference compound], in the data set on 3T3 cells, the NR50 irradiated is 0.177 mg/L, the NR50 non-irradiated is over 10 mg/L and the “Quotient non-irradiated/irradiated PIF” value was over 56.
